Activity calls are given as the source filed them. No rule for the calls is given here.
Test system: CCRIS mutagenicity, Ames/micronucleus/aberration tests
Test: CCRIS mutagenicity studies
[1] = Test System: AMES SALMONELLA TYPHIMURIUM, Strain/Indicator: TA98, Metabolic Activation: NONE, Method: PREINCUBATION
[2] = Test System: AMES SALMONELLA TYPHIMURIUM, Strain/Indicator: TA100, Metabolic Activation: NONE, Method: PREINCUBATION
[3] = Test System: AMES SALMONELLA TYPHIMURIUM, Strain/Indicator: TA98, Metabolic Activation: NONE, Method: STANDARD PLATE
[4] = Test System: AMES SALMONELLA TYPHIMURIUM, Strain/Indicator: TA100, Metabolic Activation: NONE, Method: STANDARD PLATE

Measured: mutagenic call

O=C(O)/C(Cl)=C(\CCl)C(Cl)Cl
active: [1] active; positive | [2] active; positive | Test System: AMES SALMONELLA TYPHIMURIUM, Strain/Indicator: TA104, Metabolic Activation: NONE, Method: PREINCUBATION active; positive

O=Nc1ccc(NO)cc1
active: End Point: IN VITRO CHROMOSOMAL ABERRATIONS, Test System: CHL CELLS, Metabolic Activation: NONE active; positive (structural changes) | End Point: IN VITRO CHROMOSOMAL ABERRATIONS, Test System: CHL CELLS, Metabolic Activation: RAT, LIVER, S-9, SODIUM PHENOBARBITAL AND 5,6-BENZOFLAVONE active; positive (structural changes) | [3] active; positive | Test System: AMES SALMONELLA TYPHIMURIUM, Strain/Indicator: TA98, Metabolic Activation: S-9, PHENOBARBITONE AND BETA-NAPHTHOFLAVONE, Method: STANDARD PLATE active; positive | Test System: MOUSE LYMPHOMA, Strain/Indicator: L5178Y (TK+/TK-), Metabolic Activation: NONE, Method: SUSPENSION/PLATE active; positive
inactive: Test System: E. COLI, Strain/Indicator: WP2 UVRA, Metabolic Activation: HAMSTER, LIVER, S-9, AROCLOR 1254, Method: STANDARD PLATE inactive; negative | Test System: E. COLI, Strain/Indicator: WP2 UVRA, Metabolic Activation: HAMSTER, LIVER, S-9, Method: STANDARD PLATE inactive; negative | Test System: E. COLI, Strain/Indicator: WP2 UVRA, Metabolic Activation: MOUSE, LIVER, S-9, AROCLOR 1254, Method: STANDARD PLATE inactive; negative | Test System: E. COLI, Strain/Indicator: WP2 UVRA, Metabolic Activation: MOUSE, LIVER, S-9, Method: STANDARD PLATE inactive; negative | Test System: E. COLI, Strain/Indicator: WP2 UVRA, Metabolic Activation: NONE, Method: STANDARD PLATE inactive; negative | Test System: E. COLI, Strain/Indicator: WP2 UVRA, Metabolic Activation: RAT, LIVER, S-9, AROCLOR 1254, Method: STANDARD PLATE inactive; negative | Test System: E. COLI, Strain/Indicator: WP2 UVRA, Metabolic Activation: RAT, LIVER, S-9, Method: STANDARD PLATE inactive; negative | Test System: MOUSE LYMPHOMA, Strain/Indicator: L5178Y (HPRT), Metabolic Activation: NONE, Method: SUSPENSION/PLATE inactive; negative | Test System: UDS RODENT HEPATOCYTES, Strain/Indicator: THY INCORP, Metabolic Activation: NONE, Method: IN VIVO inactive; negative

COCC1O[C@@H](O[C@@H]2C(COC)OC(OC)C(OC)C2OC)C(OC)C(OC)C1OC (some centres not stated)
inactive: [3] inactive; negative | Test System: AMES SALMONELLA TYPHIMURIUM, Strain/Indicator: TA98, Metabolic Activation: RAT, LIVER, S-9, AROCLOR 1254, Method: STANDARD PLATE inactive; negative | [4] inactive; negative | Test System: AMES SALMONELLA TYPHIMURIUM, Strain/Indicator: TA100, Metabolic Activation: RAT, LIVER, S-9, AROCLOR 1254, Method: STANDARD PLATE inactive; negative | Test System: AMES SALMONELLA TYPHIMURIUM, Strain/Indicator: TA1535, Metabolic Activation: NONE, Method: STANDARD PLATE inactive; negative | Test System: AMES SALMONELLA TYPHIMURIUM, Strain/Indicator: TA1535, Metabolic Activation: RAT, LIVER, S-9, AROCLOR 1254, Method: STANDARD PLATE inactive; negative | Test System: AMES SALMONELLA TYPHIMURIUM, Strain/Indicator: TA1537, Metabolic Activation: NONE, Method: STANDARD PLATE inactive; negative | Test System: AMES SALMONELLA TYPHIMURIUM, Strain/Indicator: TA1537, Metabolic Activation: RAT, LIVER, S-9, AROCLOR 1254, Method: STANDARD PLATE inactive; negative | Test System: AMES SALMONELLA TYPHIMURIUM, Strain/Indicator: TA1538, Metabolic Activation: NONE, Method: STANDARD PLATE inactive; negative | Test System: AMES SALMONELLA TYPHIMURIUM, Strain/Indicator: TA1538, Metabolic Activation: RAT, LIVER, S-9, AROCLOR 1254, Method: STANDARD PLATE inactive; negative | Test System: E. COLI, Strain/Indicator: WP2, Metabolic Activation: NONE, Method: STANDARD PLATE inactive; negative | Test System: E. COLI, Strain/Indicator: WP2, Metabolic Activation: RAT, LIVER, S-9, AROCLOR 1254, Method: STANDARD PLATE inactive; negative

Clc1ccc2oc3ccccc3c2c1
active: [3] active; positive | Test System: AMES SALMONELLA TYPHIMURIUM, Strain/Indicator: TA98, Metabolic Activation: RAT, LIVER, S-9, PHENOBARBITAL AND NAPHTHOFLAVONE, Method: STANDARD PLATE active; positive
inactive: [4] inactive; negative | Test System: AMES SALMONELLA TYPHIMURIUM, Strain/Indicator: TA100, Metabolic Activation: RAT, LIVER, S-9, PHENOBARBITAL AND NAPHTHOFLAVONE, Method: STANDARD PLATE inactive; negative

CC(O)CO (configuration not stated) (tested in a mixture with another compound)
active: Test System: E. COLI, Strain/Indicator: WP2 (PKM101), Metabolic Activation: RAT, LIVER, S-9, PHENOBARBITAL AND 5,6-BENZOFLAVONE, Method: STANDARD PLATE active; positive | Test System: E. COLI, Strain/Indicator: WP2 UVRA (PKM101), Metabolic Activation: RAT, LIVER, S-9, PHENOBARBITAL AND 5,6-BENZOFLAVONE, Method: STANDARD PLATE active; positive
inactive: Test System: AMES SALMONELLA TYPHIMURIUM, Strain/Indicator: TA102, Metabolic Activation: RAT, LIVER, S-9, PHENOBARBITAL AND 5,6-BENZOFLAVONE, Method: STANDARD PLATE inactive; negative | Test System: AMES SALMONELLA TYPHIMURIUM, Strain/Indicator: TA2638, Metabolic Activation: RAT, LIVER, S-9, PHENOBARBITAL AND 5,6-BENZOFLAVONE, Method: STANDARD PLATE inactive; negative

C[C@@H](O)[C@H]1C(=O)N2C(C(=O)O)=C([C@H]3CCCO3)S[C@H]12
inactive: [1] inactive; negative | Test System: AMES SALMONELLA TYPHIMURIUM, Strain/Indicator: TA98, Metabolic Activation: S-9, Method: PREINCUBATION inactive; negative | [2] inactive; negative | Test System: AMES SALMONELLA TYPHIMURIUM, Strain/Indicator: TA100, Metabolic Activation: S-9, Method: PREINCUBATION inactive; negative | Test System: AMES SALMONELLA TYPHIMURIUM, Strain/Indicator: TA1535, Metabolic Activation: NONE, Method: PREINCUBATION inactive; negative | Test System: AMES SALMONELLA TYPHIMURIUM, Strain/Indicator: TA1535, Metabolic Activation: S-9, Method: PREINCUBATION inactive; negative | Test System: AMES SALMONELLA TYPHIMURIUM, Strain/Indicator: TA1537, Metabolic Activation: NONE, Method: PREINCUBATION inactive; negative | Test System: AMES SALMONELLA TYPHIMURIUM, Strain/Indicator: TA1537, Metabolic Activation: S-9, Method: PREINCUBATION inactive; negative | Test System: E.COLI, Strain/Indicator: WP2 UVRA, Metabolic Activation: NONE, Method: PREINCUBATION inactive; negative | Test System: E.COLI, Strain/Indicator: WP2 UVRA, Metabolic Activation: S-9, Method: PREINCUBATION inactive; negative

c1ccc2c(c1)ncc1cnc3ccccc3c12
inactive: [3] inactive; negative | Test System: AMES SALMONELLA TYPHIMURIUM, Strain/Indicator: TA98, Metabolic Activation: RAT LIVER S-9, AROCLOR 1254, Method: STANDARD PLATE inactive; negative | Test System: E.COLI, Strain/Indicator: WP2, Metabolic Activation: NONE, Method: SPOT TEST inactive; negative | Test System: E.COLI, Strain/Indicator: WP2 UVRA, Metabolic Activation: NONE, Method: STANDARD PLATE inactive; negative | Test System: E.COLI, Strain/Indicator: WP2 UVRA, Metabolic Activation: R, L, S-9, AROCLOR 1254, Method: STANDARD PLATE inactive; negative | Test System: ESCHERICHIA COLI, Strain/Indicator: WP2 UVR A, Metabolic Activation: NONE, Method: STANDARD PLATE inactive; negative | Test System: ESCHERICHIA COLI, Strain/Indicator: WP2 UVR A, Metabolic Activation: RAT LIVER S-9, AROCLOR 1254, Method: STANDARD PLATE inactive; negative

O=[N+]([O-])c1c(Cl)c(Cl)c2c(c1Cl)Oc1cc(Cl)c(Cl)cc1O2
active: [3] active; positive | Test System: AMES SALMONELLA TYPHIMURIUM, Strain/Indicator: TA98, Metabolic Activation: RAT, LIVER, S-9, AROCLOR, Method: STANDARD PLATE active; positive | Test System: AMES SALMONELLA TYPHIMURIUM, Strain/Indicator: TA100, Metabolic Activation: RAT, LIVER, S-9, AROCLOR, Method: STANDARD PLATE active; positive
inactive: [4] inactive; negative

Cc1cc2nc3c(ccc4ccccc43)c(C)c2cc1C
active: Test System: AMES SALMONELLA TYPHIMURIUM, Strain/Indicator: TA97A, Metabolic Activation: NONE, Method: PREINCUBATION active; positive | Test System: AMES SALMONELLA TYPHIMURIUM, Strain/Indicator: TA102, Metabolic Activation: NONE, Method: PREINCUBATION active; positive
inactive: [1] inactive; negative | [2] inactive; negative
